Experimental data: publication PMC12347358, “Structural Insights and Calcium-Switching Mechanism of Fasciola hepatica Calcium-Binding Protein FhCaBP4” (International Journal of Molecular Sciences, 2025)

Columns and labels:
[1] = biological target: T1, FhCaBP4 (Fasciola hepatica calcium-binding protein 4) (Fasciola hepatica, UniProt I6U578); test: microscale thermophoresis (MST), labelled purified protein
T1 construct: full-length (residues 1–191), C-terminal 6×His-tag (LEHHHHHH)

[2] = biological target: Fasciola hepatica calcium-binding protein 4 (FhCaBP4), full-length (residues 1–191) (Fasciola hepatica); test: crystal structure; apo form at 1.93 Å, space group P212121, two molecules per asymmetric unit; crystals grown at 20 °C by vapor diffusion with 2 M ammonium sulfate, 0.1 M sodium citrate/citric acid pH 5.5

Question: How did the Kd [1] turn out when CN(C)CCCN1c2ccccc2Sc2ccc(Cl)cc21 [CPZ] was run?
Answer: 289 ± 99.6 µM

Question: CN1CCN(CCCN2c3ccccc3Sc3ccc(C(F)(F)F)cc32)CC1 [TFP] was tested. Which Kd [1] did it give?
Answer: 699 ± 341 µM

Question: How did the Kd [1] turn out when NCCCCCCNS(=O)(=O)c1cccc2c(Cl)cccc12 [W7] was run?
Answer: 471 ± 157 µM

Question: For “Fasciola hepatica calcium-binding protein 4 (FhCaBP4), full-length (residues 1–191) (natural protein)”, which stoichiometry N [2] is on record?
Answer: 2
